Columns and labels:
Format in all cases: cell-based
ARCaPE cells = test: Chemotherapeutic sensitivity, cell growth by MTT assay, ARCaPE cells; settings: Homo sapiens, in vitro growth, 96 hrs incubation
Experimental: (§1) Cells (5×10^3 per well) were cultured in 96-well plates for 24 hr and then replaced with fresh cultured medium to which were added Paclitaxel, Etoposide, or Doxorubicin (Sigma, St. Louis, Mo.) at 4 different concentrations, followed by incubation for 96 hrs. Cell growth was measured using the MTT assay.

C4-2 cells = test: Chemotherapeutic sensitivity, cell growth by MTT assay, C4-2 cells; settings: Homo sapiens, invasive LNCaP lineage C4-2 cells, in vitro growth
Experimental: as §1

ARCaPM cells = test: Chemotherapeutic sensitivity, cell growth by MTT assay, ARCaPM cells; settings: Homo sapiens, in vitro growth, 96 hrs incubation
Experimental: as §1

Structure (SMILES)	IC50 (ARCaPE cells) [µM]	IC50 (C4-2 cells) [µM]	IC50 (ARCaPM cells) [µM]
CC(=O)O[C@H]1C(=O)[C@@]2(C)[C@H]([C@H](OC(=O)c3ccccc3)[C@]3(O)C[C@H](OC(=O)[C@H](O)[C@@H](NC(=O)c4ccccc4)c4ccccc4)C(C)=C1C3(C)C)[C@]1(OC(C)=O)CO[C@@H]1C[C@@H]2O [paclitaxel]	0.053	0.0235	0.039
COc1cccc2c1C(=O)c1c(O)c3c(c(O)c1C2=O)C[C@@](O)(C(=O)CO)C[C@@H]3O[C@H]1C[C@H](N)[C@H](O)[C@H](C)O1 [doxorubicin]	3.4	2.7	5.5
COc1cc([C@@H]2c3cc4c(cc3[C@@H](O[C@@H]3O[C@@H]5CO[C@@H](C)O[C@H]5[C@H](O)[C@H]3O)[C@H]3COC(=O)[C@H]23)OCO4)cc(OC)c1O [etoposide]	8.1	5.6	5.8

From patent US20090028832A1, “Compositions and methods for targeted tumor therapy” (priority 2006, published 2009)
